According to patent publication US10627402B2, “Peptides for targeting gastric cancer, and medical use tehreof” (priority 2014, dated 2020):

Tests used:
[1] = test system: patient's gastric cancer tissue; assay: In vivo imaging of Cy5.5-labeled peptide-expressing phages (IVIS spectrum, ROI values); set-up: species or system mouse; unit not given here; settings: Cy5.5-labeled phage, tail vein injection, 2nd day
Method: (§1) Considering overcoming limitations that existing animal models transplanted with cultured cancer cells had, an ideal animal model of cancer similar to actual patient's cancer microenvironments is prepared. Then, to establish an animal model that can confirm influence of an irradiation-dependent cancer tissue, first, a mouse model transplanted with a cancer tissue that was extracted from an actual patient having gastric cancer was established. Regarding the establishment of such an animal model, the cancer tissue extracted from a patient was cultured in an NOD/SCID mouse. Once the cancer tissue was found in the NOD/SCID mouse, subculturing was carried out by using a Balb/c nude mouse, beginning from the next subculturing. In detail, after an NOD/SCID mouse was anesthetized via intraperitoneal injection of anesthetics, the cancer tissue was cut into pieces each having a size of 3×3 mm. Next, each of both flanks of the NOD/SCID mouse was transplanted with a piece of the cut cancer tissues, treated with a mixed solution of 100 μl of 100 IU/ml penicillin, 100 μg/ml streptomycin, 100 μg/ml gentamicin, and 2.5 μg/ml amphotericin B antibiotics, and then, sutured. The NOD/SCID mouse was recovered on a heating pad (for about 2 hours). Afterwards, the formation and growth of tumors were observed every week. When the cancer tissues grew to a size of 400-500 mm^3, the cancer tissues were separated and cut into pieces each having a size of 3×3 mm for subculturing. Next, for next subculturing, a nude mouse was anesthetized via intraperitoneal injection of anesthetics, and a piece of the cut cancer tissues was transplanted subcutaneously on the right thigh of the nude mouse. A transplantation site was changed from the flank to the both thighs so that irradiation can be locally done without affecting other organs during irradiation. That is, a mouse model in which a cancer tissue that underwent subculturing and was re-transplanted up to four times was formed was established. […] After having recovery time for no longer than 24 hours, in vivo peptide screening was performed. Here, as a control group in an irradiated population, a mouse model that was not irradiated among the same mouse models was used to screen a peptide.
(§2) In particular, 1 μg/μl of N-hydroxysuccinimide esters of Cy5.5 (Amersham) was added to 1 mL of bicarbonate buffer (pH 8.3) having the phage concentration of 10^11 plaque forming units (pfu), and then, in a condition where a dark environment was maintained, […] a phage-surface protein was linked to the Cy5.5 fluorescent probe at room temperature for 3 hours. That is, loop peptide-expressing phages to which the Cy5.5 fluorescent probe was linked were each obtained by precipitation with 170 μl of 20% (w/v) PEG 8000/2.5 M NaCl solution and purification. To determine a proportion of the Cy5.5 fluorescent probe linked to each of the finally obtained phage samples, an IVIS spectrum imaging system (Xenogen) was used for measurement, and region of interest (ROI) values were determined using the software program of a corresponding device. Accordingly, it was confirmed that the Cy5.5 fluorescent probe was linked to each of the phage samples at almost the same linking proportion.
(§3) After each of the prepared phages expressing the loop peptide was injected into the ratio-sensitive xenograft mouse model of Example 1 and the control group through the vein tail of the mouse, images were measured for 2 days immediately after the injection, thereby confirming images showing in vivo circulation of the peptide and the targeting of the peptide only in the cancer tissue while the targeting to other organs and tissues gradually disappeared. […] In addition, to verify which part of the cancer tissue was targeted by each of the loop peptide-expressing phages via ex vivo imaging, only the cancer tissue was separated and extracted, and the whole cancer tissue itself and the respective cancer tissue were subjected to fragmentation into several pieces. […]

[2] = test system: patient's gastric cancer tissue; assay: Ex vivo imaging of extracted cancer tissue (IVIS spectrum, ROI values); format: in vivo, mouse; set-up: unit not given here
Method: as §1, §2, §3

[3] = test system: patient's gastric cancer tissue; assay: Titering of phages eluted from extracted cancer tissue, relative to tissue weight; format: in vivo, mouse
Method: as §1
After each of the prepared phages expressing the loop peptide was injected into the ratio-sensitive xenograft mouse model of Example 1 and the control group through the vein tail of the mouse, images were measured for 2 days immediately after the injection, thereby confirming images showing in vivo circulation of the peptide and the targeting of the peptide only in the cancer tissue while the targeting to other organs and tissues gradually disappeared. […] In addition, to verify which part of the cancer tissue was targeted by each of the loop peptide-expressing phages via ex vivo imaging, only the cancer tissue was separated and extracted, and the whole cancer tissue itself and the respective cancer tissue were subjected to fragmentation into several pieces.
To compare targeting efficiency more accurately based on the results of FIGS. 5 and 6, the pieces of the extracted cancer tissue the pieces of the extracted cancer tissue were collected independently, and phages bound to the cancer tissues were eluted. The concentration of each of the eluted phages was measured according to titering, and due to different size and weight of the extracted cancer tissue, the weight of each cancer tissue was also measured in terms of establishing numerical standardization. In this regard, the amount of the identified phages was calculated relative to the weight of the cancer tissue. In addition, to more accurately quantify each imaging result, the in vivo imaging and the ex vivo imaging were confirmed by measuring ROI values that were determined using the IVIS spectrum (Xenogen) program, and the results thereof are shown in Table 2.

[4] = Non-irradiated population as control

Substance	in vivo ROI ([1]; Irradiated population (10 Gy))	in vivo ROI [1, 4]	ex vivo ROI ([2]; Irradiated population (10 Gy))	ex vivo ROI [2, 4]	pfu/mg ([3]; Irradiated population (10 Gy))	pfu/mg [3, 4]
Cy5.5 [reference compound]	1.00	1.00	1.00	1.00	–	–
TVRTSAD [Peptide P1, 7-amino-acid loop peptide from irradiated population; tested as Cy5.5-labeled M13 phage expressing it]	16.44	–	70.66	–	25.3 pfu/mg	–
DVWHSAY [Peptide W3, 7-amino-acid loop peptide from non-irradiated population; tested as Cy5.5-labeled M13 phage expressing it]	–	1.90	–	3.54	–	8.1 pfu/mg
QRSLPSL [Peptide W2, 7-amino-acid loop peptide from non-irradiated population; tested as Cy5.5-labeled M13 phage expressing it]	–	2.19	–	2.68	–	18.2 pfu/mg
NWGDRIL [Peptide W1, 7-amino-acid loop peptide from non-irradiated population; tested as Cy5.5-labeled M13 phage expressing it]	–	1.86	–	2.08	–	11.8 pfu/mg
RYVGTLF [Peptide P2, 7-amino-acid loop peptide from irradiated population; tested as Cy5.5-labeled M13 phage expressing it]	9.05	–	38.83	–	6.3 pfu/mg	–
NRGDRIL [Peptide P3, 7-amino-acid loop peptide from irradiated population; tested as Cy5.5-labeled M13 phage expressing it]	19.83	–	77.85	–	18.6 pfu/mg	–
